Data: patent publication US8884061B2, “Compositions and methods of use of electron transport system inhibitors” (priority 2006, dated 2014)
Converted amounts (≈) assume the structure as drawn. Where two headings read alike, the source gives them in different places.

Legend:
M. tuberculosis H37Rv = assay: MIC, agar (7H11) dilution method; assay type: cell-based; conditions: for MIC: Mycobacterium tuberculosis, H37RV
M. tuberculosis Kurono = assay: MIC, agar (7H11) dilution method; assay type: cell-based; conditions: M. tuberculosis Kurono, agar (7H11) dilution
M. bovis BCG Tokyo = assay: microbe, parasite or virus in culture; assay type: cell-based
M. avium Flamingo = assay: MIC, agar (7H11) dilution method; assay type: cell-based
[1] = tested on: M. intracellularae ATCC 15984; assay: MIC, agar (7H11) dilution method; assay type: cell-based
M. kansasii NIHJ1619 = assay: MIC, agar (7H11) dilution method; assay type: cell-based
M. aurum = assay: MIC, agar (7H11) dilution method; assay type: cell-based
M. fortuitum NIHJ1615 = assay: MIC, agar (7H11) dilution method; assay type: cell-based
M. smegmatis Takeo = assay: MIC, agar (7H11) dilution method; assay type: cell-based
S. aureus ATCC 29213 = assay: MIC, other bacteria (Table 3); assay type: cell-based
[2] = tested on: S. aureus ATCC 43300 (MRSA); assay: MIC, other bacteria (Table 3); assay type: cell-based; conditions: inoculum size 10^6 CFU/ml
VRSA 2441-T0041 = assay: MIC, other bacteria (Table 3); assay type: cell-based, S. aureus; conditions: VRSA 2441-T0041, low level VCM-resistant, inoculum size 10^6 CFU/ml
VRSA 2441-T0044 = assay: MIC, other bacteria (Table 3); assay type: cell-based, S. aureus
MRSA 2441-05104 = assay: MIC, other bacteria (Table 3); assay type: cell-based, S. aureus; conditions: inoculum size 10^6 CFU/ml
MRSA 2441-05112 = assay: MIC, other bacteria (Table 3); assay type: cell-based, S. aureus; conditions: inoculum size 10^6 CFU/ml
MRSA 2441-05129 = assay: MIC, other bacteria (Table 3); assay type: cell-based, S. aureus; conditions: inoculum size 10^6 CFU/ml
MRSA 2441-05223 = assay: MIC, other bacteria (Table 3); assay type: cell-based, S. aureus; conditions: inoculum size 10^6 CFU/ml
MRSA 2441-05254 = assay: MIC, other bacteria (Table 3); assay type: cell-based, S. aureus; conditions: inoculum size 10^6 CFU/ml
MRSA 2441-05262 = assay: MIC, other bacteria (Table 3); assay type: cell-based, S. aureus; conditions: inoculum size 10^6 CFU/ml
[3] = tested on: S. epidermidis ATCC 12228; assay: MIC, other bacteria (Table 3); assay type: cell-based
MRSE 2442-05030 = assay: MIC, other bacteria (Table 3); assay type: cell-based, S. epidermidis; conditions: inoculum size 10^6 CFU/ml
MRSE 2442-05047 = assay: MIC, other bacteria (Table 3); assay type: cell-based, S. epidermidis; conditions: inoculum size 10^6 CFU/ml
MRSE 2442-05053 = assay: MIC, other bacteria (Table 3); assay type: cell-based, S. epidermidis; conditions: inoculum size 10^6 CFU/ml
MRSE 2442-05060 = assay: MIC, other bacteria (Table 3); assay type: cell-based, S. epidermidis; conditions: inoculum size 10^6 CFU/ml
MRSE 2442-05110 = assay: MIC, other bacteria (Table 3); assay type: cell-based, S. epidermidis; conditions: inoculum size 10^6 CFU/ml
MRSE 2442-05118 = assay: MIC, other bacteria (Table 3); assay type: cell-based, S. epidermidis; conditions: inoculum size 10^6 CFU/ml
E. faecalis ATCC 29212 = assay: MIC, other bacteria (Table 3); assay type: cell-based
[4] = tested on: E. faecalis ATCC 51299 (VRE); assay: MIC, other bacteria (Table 3); assay type: cell-based; conditions: low level VCM-resistant, Van B, inoculum size 10^6 CFU/ml
[5] = tested on: E. faecalis NCTC 12201 (VRE); assay: MIC, other bacteria (Table 3); assay type: cell-based; conditions: high level VCM-resistant, Van A, inoculum size 10^6 CFU/ml
E. faecium ATCC 49224 = assay: MIC, other bacteria (Table 3); assay type: cell-based; conditions: E. faecium ATCC 49224, GM-resistant, inoculum size 10^6 CFU/ml
[6] = tested on: E. faecium NCTC 12203 (VRE); assay: MIC, other bacteria (Table 3); assay type: cell-based; conditions: high level VCM-resistant, Van A, inoculum size 10^6 CFU/ml
E. coli ATCC 25922 = assay: MIC, other bacteria (Table 3); assay type: cell-based
K. pneumoniae ATCC 27736 = assay: MIC, other bacteria (Table 3); assay type: cell-based
P. mirabilis ATCC 4630 = assay: MIC, other bacteria (Table 3); assay type: cell-based
S. marsascens ATCC 14756 = assay: MIC, other bacteria (Table 3); assay type: cell-based; conditions: inoculum size 10^6 CFU/ml
P. aeruginosa ATCC 27853 = assay: MIC, other bacteria (Table 3); assay type: cell-based
[7] = Staphylococcus aureus, read-out: MIC
[8] = Staphylococcus epidermidis, read-out: MIC
[9] = Enterococcus faecalis, read-out: MIC

## C=CCN(C)CCCCCCCCOc1ccc(C(=O)c2ccc(Cl)cc2)c(Cl)c1 [Cpd #20]
M. tuberculosis H37Rv; M. tuberculosis H37Rv, table line r7 (1st of 5 so labelled)
  Minimum inhibitory concentrations (MIC): 6.25 µg/mL (≈ 13.9 µM)
M. tuberculosis H37Rv; M. tuberculosis H37Rv, table line r8 (2nd of 5 so labelled)
  Minimum inhibitory concentrations (MIC): 6.25 µg/mL (≈ 13.9 µM)
M. tuberculosis H37Rv; M. tuberculosis H37Rv, table line r9 (3rd of 5 so labelled)
  Minimum inhibitory concentrations (MIC): 6.25 µg/mL (≈ 13.9 µM)
M. tuberculosis H37Rv; M. tuberculosis H37Rv, table line r10 (4th of 5 so labelled)
  Minimum inhibitory concentrations (MIC): 6.25 µg/mL (≈ 13.9 µM)
M. tuberculosis H37Rv; M. tuberculosis H37Rv, table line r11 (5th of 5 so labelled)
  Minimum inhibitory concentrations (MIC): 6.25 µg/mL (≈ 13.9 µM)
M. tuberculosis Kurono
  Minimum inhibitory concentrations (MIC): 6.25 µg/mL (≈ 13.9 µM)
M. bovis BCG Tokyo; M. bovis BCG Tokyo, agar (7H11) dilution
  Minimum inhibitory concentrations (MIC): 6.25 µg/mL (≈ 13.9 µM)
M. avium Flamingo
  Minimum inhibitory concentrations (MIC): 12.5 µg/mL (≈ 27.9 µM)
[1]
  Minimum inhibitory concentrations (MIC): 12.5 µg/mL (≈ 27.9 µM)
M. kansasii NIHJ1619
  Minimum inhibitory concentrations (MIC): 12.5 µg/mL (≈ 27.9 µM)
M. aurum
  Minimum inhibitory concentrations (MIC): 12.5 µg/mL (≈ 27.9 µM)
M. fortuitum NIHJ1615
  Minimum inhibitory concentrations (MIC): >25 µg/mL
M. smegmatis Takeo
  Minimum inhibitory concentrations (MIC): 25 µg/mL (≈ 55.7 µM)
S. aureus ATCC 29213; inoculum size 10^6 CFU/ml
  MIC: 25 µg/mL (≈ 55.7 µM)
[2]
  MIC: 25 µg/mL (≈ 55.7 µM)
VRSA 2441-T0041
  MIC: 50 µg/mL (≈ 111 µM)
VRSA 2441-T0044; VRSA 2441-T0044, low level VCM-resistant, inoculum size 10^6 CFU/ml
  MIC: 50 µg/mL (≈ 111 µM)
MRSA 2441-05104
  MIC: 25 µg/mL (≈ 55.7 µM)
MRSA 2441-05112
  MIC: 25 µg/mL (≈ 55.7 µM)
MRSA 2441-05129
  MIC: 25 µg/mL (≈ 55.7 µM)
MRSA 2441-05223
  MIC: 25 µg/mL (≈ 55.7 µM)
MRSA 2441-05254
  MIC: 25 µg/mL (≈ 55.7 µM)
MRSA 2441-05262
  MIC: 25 µg/mL (≈ 55.7 µM)
[3]; inoculum size 10^6 CFU/ml
  MIC: 25 µg/mL (≈ 55.7 µM)
MRSE 2442-05030
  MIC: 12.5 µg/mL (≈ 27.9 µM)
MRSE 2442-05047
  MIC: 12.5 µg/mL (≈ 27.9 µM)
MRSE 2442-05053
  MIC: 12.5 µg/mL (≈ 27.9 µM)
MRSE 2442-05060
  MIC: 12.5 µg/mL (≈ 27.9 µM)
MRSE 2442-05110
  MIC: 12.5 µg/mL (≈ 27.9 µM)
MRSE 2442-05118
  MIC: 12.5 µg/mL (≈ 27.9 µM)
E. faecalis ATCC 29212; inoculum size 10^6 CFU/ml
  MIC: 12.5 µg/mL (≈ 27.9 µM)
[4]
  MIC: 25 µg/mL (≈ 55.7 µM)
[5]
  MIC: 12.5 µg/mL (≈ 27.9 µM)
E. faecium ATCC 49224
  MIC: 12.5 µg/mL (≈ 27.9 µM)
[6]
  MIC: 12.5 µg/mL (≈ 27.9 µM)
E. coli ATCC 25922; inoculum size 10^6 CFU/ml
  MIC: >100 µg/mL
K. pneumoniae ATCC 27736; inoculum size 10^6 CFU/ml
  MIC: >100 µg/mL
P. mirabilis ATCC 4630; inoculum size 10^6 CFU/ml
  MIC: >100 µg/mL
S. marsascens ATCC 14756
  MIC: >100 µg/mL
P. aeruginosa ATCC 27853; inoculum size 10^6 CFU/ml
  MIC: >100 µg/mL

## C=CCN(C)CCCCCCCCOc1ccc(C(O)c2ccc(Cl)cc2)c(Cl)c1 (centres unmarked) [Cpd #21, (4-(8-(allyl(methyl)amino)octyloxy)-2-chlorophenyl)(4-chlorophenyl)methanol]
M. tuberculosis H37Rv; M. tuberculosis H37Rv, table line r9 (3rd of 5 so labelled), read-out: Minimum inhibitory concentrations (MIC)
  MIC: 12.5 µg/mL (≈ 27.8 µM)
M. tuberculosis H37Rv; read-out: Minimum inhibitory concentrations (MIC), M. tuberculosis H37Rv, table line r7 (1st of 5 so labelled)
  MIC: 25 µg/mL (≈ 55.5 µM)
M. tuberculosis H37Rv; read-out: Minimum inhibitory concentrations (MIC), M. tuberculosis H37Rv, table line r8 (2nd of 5 so labelled)
  MIC: 25 µg/mL (≈ 55.5 µM)
M. tuberculosis H37Rv; read-out: Minimum inhibitory concentrations (MIC), M. tuberculosis H37Rv, table line r10 (4th of 5 so labelled)
  MIC: 25 µg/mL (≈ 55.5 µM)
M. tuberculosis H37Rv; read-out: Minimum inhibitory concentrations (MIC), M. tuberculosis H37Rv, table line r11 (5th of 5 so labelled)
  MIC: 25 µg/mL (≈ 55.5 µM)
M. tuberculosis Kurono; Mycobacterium tuberculosis, read-out: Minimum inhibitory concentrations (MIC)
  MIC: 25 µg/mL (≈ 55.5 µM)
M. bovis BCG Tokyo; Mycobacterium tuberculosis variant bovis BCG, BCG, read-out: Minimum inhibitory concentrations (MIC)
  MIC: 25 µg/mL (≈ 55.5 µM)
M. avium Flamingo; Mycobacterium avium, read-out: Minimum inhibitory concentrations (MIC)
  MIC: > 25 µg/mL
[1]; read-out: Minimum inhibitory concentrations (MIC)
  MIC: > 25 µg/mL
M. kansasii NIHJ1619; Mycobacterium kansasii, read-out: Minimum inhibitory concentrations (MIC)
  MIC: > 25 µg/mL
M. aurum; Mycolicibacterium aurum, read-out: Minimum inhibitory concentrations (MIC)
  MIC: > 25 µg/mL
M. fortuitum NIHJ1615; Mycolicibacterium fortuitum, read-out: Minimum inhibitory concentrations (MIC)
  MIC: > 25 µg/mL
M. smegmatis Takeo; Mycolicibacterium smegmatis, read-out: Minimum inhibitory concentrations (MIC)
  MIC: > 25 µg/mL
S. aureus ATCC 29213; Staphylococcus aureus, ATCC29213, inoculum size 10^6 CFU/ml, read-out: MIC
  MIC: 100 µg/mL (≈ 222 µM)
[2]; [7]
  MIC: 100 µg/mL (≈ 222 µM)
VRSA 2441-T0041; [7]
  MIC: > 100 µg/mL
VRSA 2441-T0044; Staphylococcus aureus, VRSA
  MIC: > 100 µg/mL
MRSA 2441-05104; [7]
  MIC: 50 µg/mL (≈ 111 µM)
MRSA 2441-05112; [7]
  MIC: > 100 µg/mL
MRSA 2441-05129; [7]
  MIC: > 100 µg/mL
MRSA 2441-05223; [7]
  MIC: > 100 µg/mL
MRSA 2441-05254; [7]
  MIC: > 100 µg/mL
MRSA 2441-05262; [7]
  MIC: 100 µg/mL (≈ 222 µM)
[3]; Staphylococcus epidermidis, ATCC12228, inoculum size 10^6 CFU/ml, read-out: MIC
  MIC: 50 µg/mL (≈ 111 µM)
MRSE 2442-05030; [8]
  MIC: 50 µg/mL (≈ 111 µM)
MRSE 2442-05047; [8]
  MIC: 50 µg/mL (≈ 111 µM)
MRSE 2442-05053; [8]
  MIC: 50 µg/mL (≈ 111 µM)
MRSE 2442-05060; [8]
  MIC: 50 µg/mL (≈ 111 µM)
MRSE 2442-05110; [8]
  MIC: 50 µg/mL (≈ 111 µM)
MRSE 2442-05118; [8]
  MIC: 50 µg/mL (≈ 111 µM)
E. faecalis ATCC 29212; Enterococcus faecalis, ATCC29212, inoculum size 10^6 CFU/ml, read-out: MIC
  MIC: 100 µg/mL (≈ 222 µM)
[4]; [9]
  MIC: > 100 µg/mL
[5]; [9]
  MIC: 100 µg/mL (≈ 222 µM)
E. faecium ATCC 49224; Enterococcus faecium, ATCC49224, read-out: MIC
  MIC: 50 µg/mL (≈ 111 µM)
[6]; Enterococcus faecium, read-out: MIC
  MIC: 50 µg/mL (≈ 111 µM)
E. coli ATCC 25922; Escherichia coli, ATCC25922, inoculum size 10^6 CFU/ml, read-out: MIC
  MIC: > 100 µg/mL
K. pneumoniae ATCC 27736; Klebsiella pneumoniae, ATCC27736, inoculum size 10^6 CFU/ml, read-out: MIC
  MIC: > 100 µg/mL
P. mirabilis ATCC 4630; Proteus mirabilis, ATCC4630, inoculum size 10^6 CFU/ml, read-out: MIC
  MIC: > 100 µg/mL
S. marsascens ATCC 14756; read-out: MIC
  MIC: > 100 µg/mL
P. aeruginosa ATCC 27853; Pseudomonas aeruginosa, ATCC27853, inoculum size 10^6 CFU/ml, read-out: MIC
  MIC: > 100 µg/mL
